In patent publication US12433959B2, “Injectable hydrogels for controlled release of immunomodulatory compounds” (THE BOARD OF TRUSTEES OF THE LELAND STANFORD JUNIOR …, priority 2018, dated 2025):

B1: ovalbumin (protein, UniProt P01012 2-386, looked up)
Ovalbumin: GSIGAASMEFCFDVFKELKVHHANENIFYCPIAIMSALAMVYLGAKDSTRTQINKVVRFDKLPGFGDSIEAQCGTSVNVHSSLRDILNQITKPNDVYSFSLASRLYAEERYPILPEYLQCVKELYRGGLEPINFQTAADQARELINSWVESQTNGIIRNVLQPSSVDSQTAMVLVNAIVFKGLWEKAFKDEDTQAMPFRVTEQESKPVQMMYQIGLFRVASMASEKMKILELPFASGTMSMLVLLPDEVSGLEQLESIINFEKLTEWTSSNVMEERKIKVYLPRMKMEEKYNLTSVLMAMGITDVFSSSANLSGISSAESLKISQAVHAAHAEINEAGREVVGSAEAGVDAASVSEEFRADHPFLFCIKHIATNAVLFFGRCVSP
notes: commonly used model antigen

Assay: Hydrodynamic radius (MALS) and diffusivity of cargo in PBS
Format: physicochemical
Settings: for diffusivity value, D: corresponding to RH
Procedure: Values closer to 1 indicate more similar diffusivities of the OVA and Poly(I:C) (n=3). […] Values closer to 1 indicate that cargo diffusivity is limited by self-diffusion of the hydrogel (n=3).
OVA's hydrodynamic radius (RH) is 3.2 nm, corresponding to a diffusivity value, D, of 76.6 μm^2/s. Poly(I:C)'s was measured to be much larger, with an RH of 34.2 nm, using multi-angle light scattering (MALS), corresponding to a D value of 7.2 μm^2/s. This difference in size results in OVA having an over 10 times greater diffusivity than Poly(I:C) in PBS (FIG. 3C). […] The measured diffusivities for all experiments can be found in FIG. 16. With a standard injection volume in rodents (100 μL) and the release characteristics of PNP hydrogels, these OVA diffusivities correlate to release timeframes of approximately 2 and 3 weeks, respectively. Further, the ratio of OVA to Poly(I:C) diffusivities (DOVA/DPoly(I:C)) was 3.3 in the 1:5 gel, and only 1.4 in the 2:10 gel (FIG. 3C). When comparing the diffusivity of OVA to the self-diffusion of the hydrogel matrix (DOVA/DGel), which was determined by tracking the diffusivity of HPMC-C12 within the hydrogel, the ratio was 6.5 in the 1:5 gel, but only 4.7 in the 2:10 gel, while the ratio of Poly(I:C) to the hydrogel self-diffusion (DPoly(I:C)/DGel) was around 2 for the 1:5 gel and 3.5 for the 2:10 gel (FIG. 3D). […] The diffusion of OVA, however, is more limited by hydrogel self-diffusion in the 2:10 gel and appears to be small enough to diffuse more freely in the 1:5 gel (FIG. 3B). Accordingly, the diffusivity of both OVA and Poly(I:C) is restricted by the self-diffusion of the hydrogel network in the 2:10 gel and are thus similar to one another, enabling sustained co-delivery of the two cargo, despite their large difference in physicochemical properties.

Molecule	hydrodynamic radius (RH) [nm]	size of Poly(I:C) relative to OVA [times larger]	diffusivity value, D (in PBS) [μm^2/s]	diffusivity of OVA relative to Poly(I:C) (in PBS)
Polyinosinic-polycytidylic acid [Poly(I:C)]	34.2	10	7.2	
B1	3.2		76.6	over 10 times greater
